# Test results reported in ChEMBL document CHEMBL4382254, “Design, synthesis, structure-activity relationships and mechanism of action of new quinoline derivatives as potential antitumor agents” (Eur J Med Chem, 2019).
# Calls of active or inactive are those of the source. No cut-off for these calls is given here.
# Experiments:
# RKO [1] = experiment: Cytotoxicity against human RKO cells after 48 hrs by MTT assay; format: functional, cell-based
# HepG2 = experiment: Cytotoxicity against human HepG2 cells after 48 hrs by MTT assay; format: functional, cell-based; conditions: HepG2, 48 h
# RKO [2] = experiment: Inhibition of colony formation in human RKO cells after 24 hrs by crystal violet staining based assay; format: functional, cell-based
# RKO [3] = experiment: Induction of morphological changes in human RKO cells assessed as cell shrinkage at 5 to 10 uM after 24 hrs by phase contrast microscopic analysis; format: functional, cell-based
# RKO [4] = experiment: Induction of morphological changes in human RKO cells assessed as reduction in cell number at 5 to 10 uM after 24 hrs by phase contrast microscopic analysis; format: functional, cell-based
# FHC = experiment: Cytotoxicity against human FHC cells assessed as reduction in cell viability at 5 uM incubated for 24 hrs by CCK8 assay; format: cell-based
# HCT-116 [5] = experiment: Induction of apoptosis in human HCT116 cells assessed as viable cells at 2.5 uM after 24 hrs by Annexin V-FITC/propidium iodide staining based flow cytometry (reference value: 87.19%); format: functional; conditions: HCT-116, 24 h, read-out: Activity
# HCT-116 [6] = experiment: Induction of apoptosis in human HCT116 cells assessed as early apoptotic cells at 2.5 uM after 24 hrs by Annexin V-FITC/propidium iodide staining based flow cytometry (reference value: 3.32%); format: functional
# HCT-116 [7] = experiment: Induction of apoptosis in human HCT116 cells assessed as late apoptotic cells at 2.5 uM after 24 hrs by Annexin V-FITC/propidium iodide staining based flow cytometry (reference value: 6.08%); format: functional
# HCT-116 [8] = experiment: Induction of apoptosis in human HCT116 cells assessed as necrotic cells at 2.5 uM after 24 hrs by Annexin V-FITC/propidium iodide staining based flow cytometry (reference value: 3.46%); format: functional
# HCT-116 [9] = experiment: Induction of apoptosis in human HCT116 cells assessed as late apoptotic cells at 5 uM after 24 hrs by Annexin V-FITC/propidium iodide staining based flow cytometry (reference value: 6.08 to 11.92%); format: functional
# HCT-116 [10] = experiment: Induction of apoptosis in human HCT116 cells assessed as necrotic cells at 5 uM after 24 hrs by Annexin V-FITC/propidium iodide staining based flow cytometry (reference value: 3.46 to 9.31%); format: functional
# HCT-116 [11] = experiment: Induction of apoptosis in human HCT116 cells assessed as increase in early apoptotic cells after 24 hrs by Annexin V-FITC/propidium iodide staining based flow cytometry; format: functional, cell-based
# HCT-116 [12] = experiment: Induction of apoptosis in human HCT116 cells assessed as increase in late apoptotic cells after 24 hrs by Annexin V-FITC/propidium iodide staining based flow cytometry; format: functional, cell-based
# HCT-116 [13] = experiment: Induction of apoptosis in human HCT116 cells assessed as increase in cleaved PARP level at 2.5 to 10 uM after 24 hrs by immunoblot analysis; format: functional, cell-based
# HCT-116 [14] = experiment: Induction of apoptosis in human HCT116 cells assessed as decrease in pro-caspase9 level at 2.5 to 10 uM after 24 hrs by immunoblot analysis; format: functional, cell-based
# HCT-116 [15] = experiment: Induction of apoptosis in human HCT116 cells assessed as late apoptotic cells at 2.5 to 5 uM after 24 hrs in presence of pan-caspase inhibitor z-VAD-FMK by Annexin V-FITC/propidium iodide staining based flow cytometry (reference value: 7.29%); format: functional
# HCT-116 [16] = experiment: Induction of autophagy in human HCT116 cells expressing GFP-LC3 assessed as increase in LC3 puncta formation at 10 uM after 24 hrs by fluorescence microscopic analysis; format: functional, cell-based
# HCT-116 [17] = experiment: Induction of intracellular reactive oxygen species generation in human HCT116 cells at 5 to 10 uM after 24 hrs by DCFH-DA staining based flow cytometry; format: functional, cell-based
# HCT-116 [18] = experiment: Cell cycle arrest in human HCT116 cells assessed as accumulation at G0/G1 phase at 5 uM after 24 hrs by propidium iodide staining based flow cytometry (reference value: 77.78%); format: functional
# HCT-116 [19] = experiment: Cell cycle arrest in human HCT116 cells assessed as accumulation at G0/G1 phase at 5 uM after 48 hrs by propidium iodide staining based flow cytometry (reference value: 82.16%); format: functional
# HCT-116 [20] = experiment: Cell cycle arrest in human HCT116 cells assessed as accumulation at G2/M phase at 5 uM after 48 hrs by propidium iodide staining based flow cytometry (reference value: 11.24%); format: functional
# HCT-116 [21] = experiment: Cytotoxicity against P53-deficient human HCT116 cells assessed as reduction in cell viability measured after 24 hrs by CCK8 assay; format: functional, cell-based; conditions: HCT-116, 24 h
# HCT-116 [22] = experiment: Inhibition of colony formation in Bax-deficient human HCT116 cells after 24 hrs by crystal violet staining based assay; format: functional, cell-based
# HCT-116 [23] = experiment: Inhibition of colony formation in P53-deficient human HCT116 cells after 24 hrs by crystal violet staining based assay; format: functional, cell-based
# HCT-116 [24] = experiment: Induction of apoptosis in Bax-deficient human HCT116 cells assessed as viable cells at 5 uM after 24 hrs by Annexin V-FITC/propidium iodide staining based flow cytometry (reference value: 70.58%); format: functional; conditions: HCT-116, 24 h, read-out: Activity
# HCT-116 [25] = experiment: Induction of apoptosis in Bax-deficient human HCT116 cells assessed as necrotic cells at 5 uM after 24 hrs by Annexin V-FITC/propidium iodide staining based flow cytometry (reference value: 6.74%); format: functional
# HCT-116 [26] = experiment: Induction of apoptosis in P53-deficient human HCT116 cells assessed as viable cells at 5 uM after 24 hrs by Annexin V-FITC/propidium iodide staining based flow cytometry (reference value: 75.5%); format: functional; conditions: HCT-116, 24 h, read-out: Activity
# HCT-116 [27] = experiment: Induction of apoptosis in P53-deficient human HCT116 cells assessed as early apoptotic cells at 5 uM after 24 hrs by Annexin V-FITC/propidium iodide staining based flow cytometry (reference value: 5.96%); format: functional
# HCT-116 [28] = experiment: Induction of apoptosis in P53-deficient human HCT116 cells assessed as late apoptotic cells at 5 uM after 24 hrs by Annexin V-FITC/propidium iodide staining based flow cytometry (reference value: 34.09%); format: functional
# [29] = molecular target: Cellular tumor antigen p53 (Homo sapiens) (UniProt P04637); experiment: Activation of P53 in human HCT116 cells assessed as increase in PUMA expression at 2.5 to 20 uM after 24 hrs by immunoblot analysis; format: cell-based
# [30] = molecular target: Cellular tumor antigen p53 (Homo sapiens) (UniProt P04637); experiment: Activation of P53 in human HCT116 cells assessed as increase in p21 expression at 2.5 to 20 uM after 24 hrs by immunoblot analysis; format: cell-based
# [31] = molecular target: Cellular tumor antigen p53 (Homo sapiens) (UniProt P04637); experiment: Induction of P53 phosphorylation at Ser15 residue in human HCT116 cells after 15 to 90 mins by immunoblot analysis; format: cell-based
# [32] = molecular target: Cellular tumor antigen p53 (Homo sapiens) (UniProt P04637); experiment: Induction of P53 phosphorylation at Ser392 residue in human HCT116 cells after 15 to 90 mins by immunoblot analysis; format: cell-based
# [33] = molecular target: Cellular tumor antigen p53 (Homo sapiens) (UniProt P04637); experiment: Induction of P53 translocation to nucleus in human HCT116 cells measured after 15 to 90 mins by immunoblot analysis; format: cell-based
# HCT-116 [34] = experiment: Anticancer activity against human HCT116 cells xenografted in […] mouse assessed as tumor growth inhibition at 80 mg/kg administered once every 3 days for 21 days; format: functional, organism-based
# HCT-116 [35] = experiment: Anticancer activity against human HCT116 cells xenografted in […] mouse assessed as reduction in tumor weight at 80 mg/kg administered once every 3 days for 21 days; format: functional, organism-based
# Chain of Cellular tumor antigen p53 (Homo sapiens) (P04637 whole entry, looked up): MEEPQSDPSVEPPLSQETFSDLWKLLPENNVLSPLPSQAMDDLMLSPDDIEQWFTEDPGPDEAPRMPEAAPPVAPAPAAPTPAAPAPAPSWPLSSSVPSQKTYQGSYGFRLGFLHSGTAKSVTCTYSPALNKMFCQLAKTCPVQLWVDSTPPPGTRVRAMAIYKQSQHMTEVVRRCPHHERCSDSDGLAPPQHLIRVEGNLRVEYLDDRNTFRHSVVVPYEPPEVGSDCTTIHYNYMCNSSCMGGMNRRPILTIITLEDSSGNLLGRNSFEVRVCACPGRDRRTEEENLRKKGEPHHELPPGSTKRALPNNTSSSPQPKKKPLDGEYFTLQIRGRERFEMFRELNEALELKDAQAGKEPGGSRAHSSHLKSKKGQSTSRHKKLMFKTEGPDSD
compound,measurement,setting,value
CN(C)CCNc1ccnc2cc(OCc3ccc(F)cc3)ccc12,IC50,RKO [1],580 nM
same,IC50,HepG2,790 nM
same,inhibition,RKO [2],Dose-dependent effect
same,Activity,RKO [3],Active
same,Activity,RKO [4],Active
same,Activity,FHC,Non-Toxic
same,viability at 2.5 µM,HCT-116 [5],78.1%
same,Activity,HCT-116 [6],4.94%
same,Activity,HCT-116 [7],10.32%
same,Activity,HCT-116 [8],6.64%
same,Activity,HCT-116 [9],17.49 - 17.54%
same,Activity,HCT-116 [10],9.3 - 10.45%
same,Activity,HCT-116 [11],Dose-dependent effect
same,Activity,HCT-116 [12],Dose-dependent effect
same,Activity,HCT-116 [13],Active
same,Activity,HCT-116 [14],Active
same,Activity,HCT-116 [15],10.05%
same,Activity,HCT-116 [16],inactive
same,Activity,HCT-116 [17],inactive
same,Activity,HCT-116 [18],82.21%
same,Activity,HCT-116 [19],83.72%
same,Activity,HCT-116 [20],8.88%
same,IC50,HCT-116 [21],18100 nM
same,inhibition,HCT-116 [22],inactive
same,inhibition,HCT-116 [23],inactive
same,viability at 5 µM,HCT-116 [24],77.3%
same,Activity,HCT-116 [25],1.24%
same,viability at 5 µM,HCT-116 [26],76.3%
same,Activity,HCT-116 [27],5.29%
same,Activity,HCT-116 [28],14.05%
same,Activity,[29],Active
same,Activity,[30],Active
same,Activity,[31],Active
same,Activity,[32],Active
same,Activity,[33],Active
same,TGI,HCT-116 [34],Active
same,Activity,HCT-116 [35],Active
